Measurements: patent publication US9718771B2, “Aniline derivative, pharmaceutical composition containing same, and use thereof” (Kissei Pharmaceutical Co., Ltd., priority 2014, dated 2017)
pIC50: −log10 of the molar value.

Molecular target: human S1P1 (EDG-1) (Homo sapiens (Human), UniProt P21453)
Assay: Confirmation test of antagonistic activity for human S1P1 receptor (35S-GTP binding, cell membranes)
Type: biochemical
Conditions: inhibition of 35S-GTP binding induced by S1P1 receptor selective agonist; HEK293 membranes expressing human S1P1
Protocol: Confirmation Test of Antagonistic Activity for Human S1P1 Receptor
Test compounds were tested by reduction of functional binding activity of ^35S-GTP (guanosine 5′-O-[gamma-thio] triphosphate, PerkinElmer) to G protein using cell membranes expressing human S1P1 (EDG-1). S1P1-pcDNA3.1/V5-His-Topo vector was prepared by inserting cDNA (NM_001400) encoding human S1P1 into the expression vector, pcDNA3.1/V5-His-Topo (registered trademark) (Invitrogen). Next, the above S1P1-pcDNA3.1 vector was transfected into HEK293 cells by Lipofectamine2000 (registered trademark) (Invitrogen). The transfected cells were incubated with D-MEM liquid medium each containing 10% FBS (Fetal bovine serum), 100 U/mL penicillin, 100 μg/mL streptomycin and 1 mg/mL Geneticin (registered trademark) (Invitrogen) in an incubator under the condition of 5% CO2 at 37° C. and Geneticin (registered mark)-resistant cell line stably expressing S1P1 were obtained. The obtained stably S1P1-expressing cells were incubated with D-MEM liquid medium each containing 10% FBS and 0.5 mg/mL Geneticin (registered trademark) in an incubator under the condition of 5% CO2 at 37° C. The cells grown to confluence were harvested by a buffer solution containing 50 mM Tris, 2 mM EDTA (ethylmediaminetetraacetic acid) and 125 mM sodium chloride, and centrifuged at 1880×g, 4° C. for 10 minutes. After a supernatant was removed, a cell pellet was resuspended by the same buffer solution. For making cell membranes fragile, this cell suspension was frozen at −80° C. and then thawed. The cells were centrifuged at 1880×g, 4° C. for 10 minutes, and a supernatant was removed. The cell pellet was suspended by adding the same buffer solution and a fracture solution (10 mM sodium bicarbonate and 5 mM EDTA, pH 7.5) at a ratio of 2:1. The cells were fractured by subjecting the cell suspension to ultrasonication, and a cell membrane fraction was isolated by centrifugation at 1880×g, 4° C. for 10 minutes and ultracentrifugation of the supernatant at 80000×g, 4° C. for 30 minutes. A pellet of the cell membrane fraction was suspended by the fracture solution containing protease inhibitor cocktail (Roche) and stored at −80° C. until use. A protein concentration of the cell membrane fraction was determined using BCA Protein Assay Kit (Pierce) in accordance with an attached protocol.
Inhibitory activity evaluation was performed by multi-screen (registered trademark) HTS 96-well plate (Millipore) using the cell membrane fraction stably expressing S1P1 obtained by the above operation. 25 μL of assay solution (50 mM Tris, 100 mM sodium chloride, 5 mM magnesium chloride, 1 mM EDTA, 1 mM DTT (dithiothreitol), 10 μM GDP (guanosine diphosphate) and 0.5% BSA (bovine serum albumin), pH 7.4), 25 μL of test compounds solution diluted by assay solution and 25 μL of the membrane fraction (0.2 μg protein/μL) were added to each well, and the mixture was gently shaken at room temperature: for 30 minutes. Then, 25 μL of ^35S-GTP, and 25 μL of 50 nM S1P1 receptor selective agonist (1-[4-(4-phenyl-5-trifluoromethylthiophen-2-ylmethoxy)benzyl]azetidine-3-carboxylic acid, “J. Med. Chem.”, 2004, vol. 47, pp. 6662-6665, compound 18) were added to each well, respectively, and it was reacted at room temperature for 60 minutes. After the reaction, a reaction solution of each well was suction-filtered. After suction filtration, ice-colded wash solution (50 mM Tris, 100 mM sodium chloride, […] and 1 mM EDTA, pH 7.4) was added to each well, and moreover filters were washed by suction filtration. This wash procedure was performed three times. A bottom of the plate containing the filters was dried at 60° C. After drying, 30 μL of MicroScinti-40 (PerkinElmer) was added to each well, and the radioactivity adsorbed on the filter was determined by TopCount NXT (registered trademark) (PerkinElmer) after shaking for 30 minutes at room temperature. […]

Sequence of human S1P1 (EDG-1) (P21453 whole entry): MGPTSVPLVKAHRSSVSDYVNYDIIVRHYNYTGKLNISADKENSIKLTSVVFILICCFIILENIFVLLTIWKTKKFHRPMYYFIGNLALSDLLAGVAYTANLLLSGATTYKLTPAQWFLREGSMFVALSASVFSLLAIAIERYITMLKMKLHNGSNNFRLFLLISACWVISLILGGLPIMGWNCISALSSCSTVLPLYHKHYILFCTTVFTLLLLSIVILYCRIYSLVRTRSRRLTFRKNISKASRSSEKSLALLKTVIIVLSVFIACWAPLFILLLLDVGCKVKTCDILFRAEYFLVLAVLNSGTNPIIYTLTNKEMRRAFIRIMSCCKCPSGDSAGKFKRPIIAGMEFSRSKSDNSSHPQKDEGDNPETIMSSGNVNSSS

Row | SMILES | pIC50
1 | Cc1cc(NC(C)c2ccc(C)c(CN3CC(C(=O)O)C3)c2)ccc1Cl (centres unmarked) [Comparative Example 1, 1-{5-[1-(4-Chloro-3-methylphenylamino)ethyl]-2-methylbenzyl}azetidine-3-carboxylic acid, reference compound] | 6.36
2 | Cc1cc(N(C)Cc2cccc(CN3CC(C(=O)O)C3)c2)ccc1Cl [Compound 1-2] | 8.12
3 | CCN(Cc1ccc(C)c(CN2CC(C(=O)O)C2)c1)c1ccc(Cl)c(C)c1 [Compound 2-1, 1-(5-{[(4-Chloro-3-methylphenyl)(ethyl)amino]methyl}-2-methylbenzyl)azetidine-3-carboxylic acid] | 8.28
4 | Cc1cc(N(C)Cc2ccc(C)c(CN3CC(C(=O)O)C3)c2)ccc1Cl [Compound 2-2] | 8.17
5 | Cc1cc(N(Cc2ccc(C)c(CN3CC(C(=O)O)C3)c2)C(C)C)ccc1Cl [Compound 2-3] | 8.55
6 | CCN(Cc1cccc(CN2CC(C(=O)O)C2)c1C)c1ccc(Cl)c(C)c1 [Compound 2-4] | 8.41
7 | Cc1cc(CN2CC(C(=O)O)C2)c2c(c1)C(N(C)c1ccc(Cl)c(C)c1)CC2 (centres unmarked) [Compound 2-9] | 7.65
8 | Cc1ccc2c(c1CN1CC(C(=O)O)C1)CCC2N(C)c1ccc(Cl)c(C(F)(F)F)c1 (centres unmarked) [Compound 2-10, 1-{1-[(4-Chloro-3-trifluoromethylphenyl)(methyl)amino]-5-methylindan-4-ylmethyl}azetidine-3-carboxylic acid] | 8.60
9 | CCN(Cc1ccc(C)c(CN2CC(C(=O)O)C2)c1C)c1ccc(Cl)c(C)c1 [Compound 2-11] | 8.96
10 | CCC(c1cccc(CN2CC(C(=O)O)C2)c1)N(CC)c1ccc(Cl)c(C)c1 (centres unmarked) [Compound 2-12] | 8.17
11 | Cc1cc(N(C)C(C)c2ccc(C)c(CN3CC(C(=O)O)C3)c2)ccc1Cl (centres unmarked) [Compound 2-13] | 7.67
12 | CCCN(c1ccc(Cl)c(C)c1)C(C)c1ccc(C)c(CN2CC(C(=O)O)C2)c1 (centres unmarked) [Compound 2-14, 1-(5-{1-[(4-Chloro-3-methylphenyl)(propyl)amino]ethyl}-2-methylbenzyl)-azetidine-3-carboxylic acid] | 8.77
13 | CCN(c1ccc(Cl)c(C)c1)C1CCc2c1ccc(F)c2CN1CC(C(=O)O)C1 (centres unmarked) [Compound 2-15, 1-{1-[(4-Chloro-3-methylphenyl)(ethyl)amino]-5-fluoroindan-4-ylmethyl}-azetidine-3-carboxylic acid] | 8.60
14 | CCN(c1ccc(Cl)c(C)c1)C1CCc2c(CN3CC(C(=O)O)C3)cc(F)cc21 (centres unmarked) [Compound 2-16] | 8.48
15 | Cc1cc(N(C)C2CCc3c(CN4CC(C(=O)O)C4)cccc32)ccc1Cl (centres unmarked) [Compound 2-17] | 7.56
16 | CCN(c1ccc(Cl)c(C)c1)C1CCc2c1ccc(OC)c2CN1CC(C(=O)O)C1 (centres unmarked) [Compound 2-18] | 8.33
17 | CCN(c1ccc(Cl)c(C)c1)C1CCc2c1ccc(C)c2CN1CC(C(=O)O)C1 (centres unmarked) [Compound 2-21, 1-{1-[(4-Chloro-3-methylphenyl)(ethyl)amino]-5-methylindan-4-ylmethyl}-azetidine-3-carboxylic acid] | 8.72
18 | CCN(c1ccc(Cl)c(C)c1)C1CCc2c(CN3CC(C(=O)O)C3)cc(C)cc21 (centres unmarked) [Compound 2-22] | 8.30
19 | CCN(c1ccc(Cl)c(C(F)(F)F)c1)C1CCc2c(CN3CC(C(=O)O)C3)cccc21 (centres unmarked) [Compound 2-24] | 8.43

Row | SMILES | pIC50
20 | Cc1ccc(C(C)N(C)c2ccc(Cl)c(C(F)(F)F)c2)cc1CN1CC(C(=O)O)C1 (centres unmarked) [Compound 2-25, 1-(5-{1-[(4-Chloro-3-trifluommethylphenyl)(methyl)amino]ethyl}-2-methylbenzyl)azetidine-3-carboxylic acid] | 8.17
21 | CCN(c1ccc(Cl)c(C)c1)C(C)c1cc(Cl)cc(CN2CC(C(=O)O)C2)c1 (centres unmarked) [Compound 2-29] | 8.92
22 | CCN(c1ccc(Cl)c(C)c1)C(C)c1ccc(OC)c(CN2CC(C(=O)O)C2)c1 (centres unmarked) [Compound 2-30] | 8.16
23 | CCN(c1ccc(Cl)c(C)c1)C(C)c1ccc(F)c(CN2CC(C(=O)O)C2)c1 (centres unmarked) [Compound 2-31, 1-(5-{1-[(4-Chloro-3-methylphenyl)(ethyl)amino]ethyl}-2-fluorobenzyl)-azetidine-3-carboxylic acid] | 8.24
24 | CCN(c1ccc(Cl)c(C)c1)C(C)c1ccc(Cl)c(CN2CC(C(=O)O)C2)c1 (centres unmarked) [Compound 2-32, 1-(2-Chloro-5-{1-[(4-chloro-3-methylphenyl)(ethyl)amino]ethyl}benzyl)-azetidine-3-carboxylic acid] | 8.96
25 | CC(c1ccc(Cl)c(CN2CC(C(=O)O)C2)c1)N(C)c1ccc(Cl)c(C(F)(F)F)c1 (centres unmarked) [Compound 2-33, 1-(2-Chloro-5-{1-[(4-chloro-3-trifluoromethylphenyl)(methyl)amino]-ethyl}benzyl)azetidine-3-carboxylic acid] | 8.11
26 | CCN(c1ccc(Cl)c(C(F)(F)F)c1)C(C)c1ccc(Cl)c(CN2CC(C(=O)O)C2)c1 (centres unmarked) [Compound 2-34, 1-(2-Chloro-5-{1-[(4-chloro-3-trifluoromethylphenyl)(ethyl)amino]ethyl}-benzyl)azetidine-3-carboxylic acid] | 8.82
27 | Cc1ccc(C(C)N(CCO)c2ccc(Cl)c(C(F)(F)F)c2)cc1CN1CC(C(=O)O)C1 (centres unmarked) [Compound 2-37] | 8.07
28 | Cc1ccc2c(c1CN1CC(C(=O)O)C1)CCC2N(CCO)c1ccc(Cl)c(C(F)(F)F)c1 (centres unmarked) [Compound 2-39] | 8.47
29 | CCN(c1ccc(Cl)c(C(F)(F)F)c1)C(C)c1ccc(C(F)(F)F)c(CN2CC(C(=O)O)C2)c1 (centres unmarked) [Compound 2-41, 1-(5-{1-[(4-Chloro-3-trifluoromethylphenyl)(ethyl)amino]ethyl}-2-trifluoromethylbenzyl)azetidine-3-carboxylic acid] | 8.72
30 | CCN(c1ccc(Cl)c(C)c1)C(C)c1ccc(C(F)(F)F)c(CN2CC(C(=O)O)C2)c1 (centres unmarked) [Compound 2-43, 1-(5-{1-[(4-Chloro-3-methylphenyl)(ethyl)amino]ethyl}-2-trifluoromethylbenzyl)azetidine-3-carboxylic acid] | 8.46
31 | Cc1ccc(C(C)N(C)c2ccc(C#N)c(C(F)(F)F)c2)cc1CN1CC(C(=O)O)C1 (centres unmarked) [Compound 2-44] | 8.05
32 | CCC(c1ccc(C)c(CN2CC(C(=O)O)C2)c1)N(CC)c1ccc(Cl)c(C(F)(F)F)c1 (centres unmarked) [Compound 2-45, 1-(5-{1-[(4-Chloro-3-trifluoromethylphenyl)(ethyl)amino]propyl}-2-methylbenzyl)azetidine-3-carboxylic acid] | 9.10
33 | CCC(c1ccc(C)c(CN2CC(C(=O)O)C2)c1)N(CC)c1ccc(Cl)c(C)c1 (centres unmarked) [Compound 2-46, 1-(5-{1-[(4-Chloro-3-methylphenyl)(ethyl)amino]propyl}-2-methylbenzyl)-azetidine-3-carboxylic acid] | 8.72
34 | CCN(c1ccc(Cl)cc1)C(C)c1ccc(C)c(CN2CC(C(=O)O)C2)c1 (centres unmarked) [Compound 2-47] | 8.74
35 | CCN(c1cccc(Cl)c1)C(C)c1ccc(C)c(CN2CC(C(=O)O)C2)c1 (centres unmarked) [Compound 2-49] | 9.05
36 | CCN(Cc1cccc(CN2CC(C(=O)O)C2)c1)c1ccc(Cl)c(C)c1 [Compound 3-1, 1-(3-{[(4-Chloro-3-methylphenyl)(ethyl)amino]methyl}benzyl)azetidine-3-carboxylic acid] | 8.05
37 | Cc1cc(N(Cc2cccc(CN3CC(C(=O)O)C3)c2)C(C)C)ccc1Cl [Compound 3-4] | 7.82
38 | CCN(c1ccc(Cl)c(C)c1)C1CCCc2c(CN3CC(C(=O)O)C3)cccc21 (centres unmarked) [Compound 3-7] | 7.89
